Measured values: patent US20060281720A1, “5-Androstenediol As An Inhibitor of Gliomas” (priority 2005, published 2006)

What was measured:
rat T9 glioma cells = settings: Example 1, FIG. 1; 500 μm, 3 days, compared to controls
Experimental: (§1) αAED, βAED, αAET, and βAET, are commercially available. Unless otherwise indicated, all steroids were dissolved in DMSO:ETHOL (1:1 v/v). Stock solutions were refrigerated and brought to room temperature before use. For testing, stock solutions were diluted in media immediately before use.
(§2) The rat F98 cell line was obtained from the American Type Culture Collection (ATCC No. CRL-2397). These cells are tumorgenic and have biological characteristics that closely resemble those of human glioblastoma. The F98 cells are weakly immunogenic. […] The T9 cell line is tumorgenic and immunogenic. The human U-87 cell line was obtained from American Type Culture Collection (ATCC No. HTB-14). These cells are tumorgenic and are derived from malignant gliomas. The human T98 cell line was obtained from the American Type Culture Collection (ATCC No. CRL-1690). These cells are derived from the brain of a subject diagnosed with glioblastoma multiforme.
(§3) Cells were grown in Complete Media (CM) consisting of Dulbecco's Modified Eagle Medium. Cells were initially seeded at a density of 1×10^4 cells per 0.2 ml in 96 well plates and grown at 37° C. During the growth phase, the media was not changed. Proliferation was measured by tritium uptake (as a measure of DNA synthesis). One microcurie (1 μC) was added to the cells and incubated overnight. The 96 well plate was then refrigerated and counted in a topcount cell plate harvester.
(§4) Rat F98 and T9 glioma cells and […] and U87 glioma cells were cultured in 96 well plates at a density of approximately 1×10^4 cells per well. Cells were treated with 500 μm of αAED or βAED or vehicle and cultured for 3 days. The cultures were pulsed with 3H-TdR for the last 15 hours.

human U87 glioma cells = settings: Example 1, FIG. 1; 500 μm, 3 days, compared to controls
Experimental: as §1, §2, §3, §4

rat F98 glioma cells [1] = test: Morphology of rat F98 glioma cells viewed in situ by microscope; type: cell-based; settings: Example 3, FIG. 3, 24 hours; for morphological changes compared to vehicle treated cells: 20× magnification
Experimental: Cells were cultured as described in example 1 for 24 hours. Cells were cultured with […] of αAED, βAED, βAET, and vehicle. After culture, the cells were viewed in situ under 20× magnification using a reverse image microscope.

human T98 glioma cells = test: Proliferation of human T98 glioma cells by 3H-TdR incorporation; type: cell-based; settings: 3 days; for cell growth / proliferation (3H-TdR incorporation): compared to controls; for dose dependency of antiproliferative effect / proliferation: Example 2, FIG. 2; for dose dependency of antiproliferative effect: 500, 50, 5.0 and 0.5 μm; for proliferation: at 500 μm
Experimental: (§5) αAED, βAED, αAET, and βAET, are commercially available.
(§6) The F98 cells are weakly immunogenic. […] The T9 cell line is tumorgenic and immunogenic.
(§7) During the growth phase, the media was not changed.
(§8) Rat F98 glioma cells and […] glioma cells were grown and cultured as in example 1 above. The cells were cultured in the presence of αAED or βAED in titrated concentrations of 500 μm, 50 μm, 5.0 μm, and 0.5 μm. After 3 days, glioma cell proliferation was measured as described above.
(§9) The cells were cultured in the presence of αAED, βAED, αAET, βAET, or vehicle in titrated concentrations of 400 μm, 200 μm, 100 μm, and 50 μm.

rat F98 glioma cells [2] = test: Proliferation of rat F98 glioma cells by 3H-TdR incorporation; type: cell-based; settings: 3 days; for cell growth / proliferation (3H-TdR incorporation): compared to controls; for dose dependency of antiproliferative effect / proliferation: Example 2, FIG. 2; for dose dependency of antiproliferative effect: 500, 50, 5.0 and 0.5 μm; for proliferation: at 500 μm
Experimental: as §5, §6, §7, §8, §9

Raw 264.7 = settings: Huynh and Loria, J Leukoc Biol 1997; cited from earlier work
murine P388D1 = settings: Huynh and Loria, J Leukoc Biol 1997; cited from earlier work
[3] = test system: human promyelocytic HL60 cells; settings: Huynh and Loria, J Leukoc Biol 1997; cited from earlier work
[4] = Example 4, FIG. 4, 400, 200, 100 and 50 μM
[5] = Example 5, FIG. 5, 400, 200, 100 and 50 μM

| Compound | cell growth / proliferation (3H-TdR incorporation) (rat T9 glioma cells) | cell growth / proliferation (3H-TdR incorporation) (human U87 glioma cells) | morphology of apoptosis (cell shrinkage, rounding, vacuolization, partial detachment, lobulated appearance) (rat F98 glioma cells [1]) | morphological changes compared to vehicle treated cells (rat F98 glioma cells [1]) | cell growth / proliferation (3H-TdR incorporation) (human T98 glioma cells; Example 1, FIG. 1, 500 μm) | dose dependency of antiproliferative effect (human T98 glioma cells) | proliferation (human T98 glioma cells) | cell growth / proliferation (3H-TdR incorporation) (human T98 glioma cells; [4]) | cell growth / proliferation (3H-TdR incorporation) (rat F98 glioma cells [2]; Example 1, FIG. 1, 500 μm) | dose dependency of antiproliferative effect (rat F98 glioma cells [2]) | proliferation (rat F98 glioma cells [2]) | cell growth / proliferation (3H-TdR incorporation) (rat F98 glioma cells [2]; [5]) | proliferation and apoptosis (Raw 264.7) | proliferation and apoptosis (murine P388D1) | proliferation and apoptosis [3] |
| --- | --- | --- | --- | --- | --- | --- | --- | --- | --- | --- | --- | --- | --- | --- | --- |
| 5-androstene-3β-17β-diol [βAED] | inhibited cell growth | inhibited cell growth | display morphology of apoptasis | significant morphological changes | inhibited cell growth | dose dependent | inhibited the proliferation | inhibited cell growth | inhibited cell growth | dose dependent | inhibited the proliferation | inhibited cell growth |  |  |  |
| 5-androstene-3β-17α-diol [αAED] | inhibited cell growth | inhibited cell growth | display morphology of apoptasis | most drastic morphological changes | inhibited cell growth | dose dependent | inhibited the proliferation | significantly inhibited cell growth | inhibited cell growth | dose dependent | inhibited the proliferation | significantly inhibited cell growth | inhibits the proliferation and induces apoptosis | inhibits the proliferation and induces apoptosis | inhibits the proliferation and induces apoptosis |
| C[C@]12CC[C@H]3[C@@H]([C@@H](O)C=C4C[C@@H](O)CC[C@@]43C)[C@@H]1CC[C@@H]2O [βAET, 5-androstene-3β-7β-17β-triol] |  |  | display morphology of apoptasis | significant morphological changes |  |  |  | displayed significant effects on the proliferation |  |  |  | displayed significant effects on the proliferation |  |  |  |
| C[C@]12CC[C@H]3[C@@H]([C@H](O)C=C4C[C@@H](O)CC[C@@]43C)[C@@H]1CC[C@@H]2O [αAET, 5-androstene-3β-7α-17β-triol] |  |  |  |  |  |  |  | displayed significant effects on the proliferation |  |  |  | displayed significant effects on the proliferation |  |  |  |
